Laboratory results published in patent US12077503B2, “Substituted cyclic amides and their use as herbicides” (FMC CORPORATION, priority 2015, dated 2024).

Assays:
Assay type in all cases: in vivo
[1] = tested on: barnyardgrass (Echinochloa crus-galli); assay: Test G Post-Emergence Protocol; conditions: Echinochloa crus-galli, post-emergence, 312 h; for pest or weed control at 15.625 g/ha: 15.625 g ai/ha, evaluated after 13 days (100=total damage to plant; 0=no damage to plant), read-out: Barnyardgrass damage rating; for pest or weed control at 62.5 g/ha: 62.5 g ai/ha, read-out: Barnyardgrass damage rating (100=total damage to plant; 0=no damage to plant); for pest or weed control at 62.5 g/ha / pest or weed control at 250 g/ha: evaluated after 13 days; for pest or weed control at 250 g/ha: 250 g ai/ha, read-out: damage to plant, Barnyardgrass (100=total damage to plant; 0=no damage to plant)
Procedure, shortened: (§1)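 Pot-grown seedlings, 8 days old, raised in a glasshouse at 24/16 °C day/night with 14 h light and 65% humidity, were sprayed post-emergence with test compound in acetone/water (50:50) plus 0.5% Tween 20 at 15.625, 62.5 or 250 g/ha. Damage was scored visually 13 days later on a 0–100 scale (100 = total damage).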

[2] = tested on: redroot pigweed (Amaranthus retroflexus); assay: Test G Post-Emergence Protocol; conditions: Amaranthus retroflexus, post-emergence, 312 h; for pest or weed control at 15.625 g/ha: 15.625 g ai/ha, evaluated after 13 days (100=total damage to plant; 0=no damage to plant), read-out: Pigweed, Redroot damage rating; for pest or weed control at 62.5 g/ha: 62.5 g ai/ha, read-out: Pigweed, Redroot damage rating (100=total damage to plant; 0=no damage to plant); for pest or weed control at 62.5 g/ha / pest or weed control at 250 g/ha: evaluated after 13 days; for pest or weed control at 250 g/ha: 250 g ai/ha, read-out: damage to plant, Pigweed, Redroot (100=total damage to plant; 0=no damage to plant)
Procedure, shortened: as §1

[3] = tested on: velvetleaf (Abutilon theophrasti); assay: Test G Post-Emergence Protocol; conditions: Abutilon theophrasti, post-emergence, 312 h; for pest or weed control at 15.625 g/ha: 15.625 g ai/ha, evaluated after 13 days (100=total damage to plant; 0=no damage to plant), read-out: Velvetleaf damage rating; for pest or weed control at 62.5 g/ha: 62.5 g ai/ha, read-out: Velvetleaf damage rating (100=total damage to plant; 0=no damage to plant); for pest or weed control at 62.5 g/ha / pest or weed control at 250 g/ha: evaluated after 13 days; for pest or weed control at 250 g/ha: 250 g ai/ha, read-out: damage to plant, Velvetleaf (100=total damage to plant; 0=no damage to plant)
Procedure, shortened: as §1

corn (Zea mays) [4] = assay: Test G Post-Emergence Protocol; conditions: Zea mays, post-emergence, 312 h; for plant injury at 15.625 g/ha: 15.625 g ai/ha, evaluated after 13 days (100=total damage to plant; 0=no damage to plant), read-out: Corn damage rating; for plant injury at 62.5 g/ha: 62.5 g ai/ha, read-out: Corn damage rating (100=total damage to plant; 0=no damage to plant); for plant injury at 62.5 g/ha / plant injury at 250 g/ha: evaluated after 13 days; for plant injury at 250 g/ha: 250 g ai/ha, read-out: damage to plant, Corn (100=total damage to plant; 0=no damage to plant)
Procedure, shortened: as §1

[5] = tested on: giant foxtail (Setaria faberi); assay: Test G Post-Emergence Protocol; conditions: Setaria faberi, post-emergence, 312 h; for pest or weed control at 15.625 g/ha: 15.625 g ai/ha, evaluated after 13 days (100=total damage to plant; 0=no damage to plant), read-out: Foxtail, Giant damage rating; for pest or weed control at 62.5 g/ha: 62.5 g ai/ha, read-out: Foxtail, Giant damage rating (100=total damage to plant; 0=no damage to plant); for pest or weed control at 62.5 g/ha / pest or weed control at 250 g/ha: evaluated after 13 days; for pest or weed control at 250 g/ha: 250 g ai/ha, read-out: damage to plant, Foxtail, Giant (100=total damage to plant; 0=no damage to plant)
Procedure, shortened: as §1

[6] = tested on: ivy-leaved morning glory (Ipomoea hederacea); assay: Test G Post-Emergence Protocol; conditions: Ipomoea, post-emergence, 312 h; for pest or weed control at 15.625 g/ha: 15.625 g ai/ha, evaluated after 13 days (100=total damage to plant; 0=no damage to plant), read-out: Morningglory, Ivy-leaved damage rating; for pest or weed control at 62.5 g/ha: 62.5 g ai/ha, read-out: Morningglory, Ivy-leaved damage rating (100=total damage to plant; 0=no damage to plant); for pest or weed control at 62.5 g/ha / pest or weed control at 250 g/ha: evaluated after 13 days; for pest or weed control at 250 g/ha: 250 g ai/ha, read-out: damage to plant, Morningglory, Ivy-leaved (100=total damage to plant; 0=no damage to plant)
Procedure, shortened: as §1

[7] = tested on: barnyardgrass (Echinochloa crus-galli); assay: Test G Pre-Emergence Protocol; conditions: Echinochloa crus-galli, pre-emergence, 312 h, evaluated after 13 days; for pest or weed control at 15.625 g/ha: 15.625 g ai/ha, read-out: Barnyard grass damage rating (100=total damage to plant; 0=no damage to plant); for pest or weed control at 62.5 g/ha: 62.5 g ai/ha, 100=total damage to plant, 0=no damage to plant, read-out: plant damage rating, Barnyardgrass; for pest or weed control at 250 g/ha: 250 g ai/ha, read-out: Barnyardgrass damage rating (100=total damage to plant; 0=no damage to plant)
Procedure, shortened: (§2)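 Glasshouse pre-emergence test: soil-sown seeds, sprayed after 1 d at 15.625, 62.5 or 250 g/ha. Conditions 24/16° C day/night, 14 h light, 65% humidity, watering twice daily. Rating 13 d post-spray (100 = total damage).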

[8] = tested on: redroot pigweed (Amaranthus retroflexus); assay: Test G Pre-Emergence Protocol; conditions: Amaranthus retroflexus, pre-emergence, 312 h, evaluated after 13 days; for pest or weed control at 15.625 g/ha: 15.625 g ai/ha; for pest or weed control at 15.625 g/ha / pest or weed control at 250 g/ha: read-out: Pigweed, Redroot damage rating (100=total damage to plant; 0=no damage to plant); for pest or weed control at 62.5 g/ha: 62.5 g ai/ha, 100=total damage to plant, 0=no damage to plant, read-out: plant damage rating, Pigweed, Redroot; for pest or weed control at 250 g/ha: 250 g ai/ha
Procedure, shortened: as §2

[9] = tested on: velvetleaf (Abutilon theophrasti); assay: Test G Pre-Emergence Protocol; conditions: Abutilon theophrasti, pre-emergence, 312 h, evaluated after 13 days; for pest or weed control at 15.625 g/ha: 15.625 g ai/ha; for pest or weed control at 15.625 g/ha / pest or weed control at 250 g/ha: read-out: Velvetleaf damage rating (100=total damage to plant; 0=no damage to plant); for pest or weed control at 62.5 g/ha: 62.5 g ai/ha, 100=total damage to plant, 0=no damage to plant, read-out: plant damage rating, Velvetleaf; for pest or weed control at 250 g/ha: 250 g ai/ha
Procedure, shortened: as §2

corn (Zea mays) [10] = assay: Test G Pre-Emergence Protocol; conditions: Zea mays, pre-emergence, 312 h, evaluated after 13 days; for plant injury at 15.625 g/ha: 15.625 g ai/ha; for plant injury at 15.625 g/ha / plant injury at 250 g/ha: read-out: Corn damage rating (100=total damage to plant; 0=no damage to plant); for plant injury at 62.5 g/ha: 62.5 g ai/ha, 100=total damage to plant, 0=no damage to plant, read-out: plant damage rating, Corn; for plant injury at 250 g/ha: 250 g ai/ha
Procedure, shortened: as §2

[11] = tested on: giant foxtail (Setaria faberi); assay: Test G Pre-Emergence Protocol; conditions: Setaria faberi, pre-emergence, 312 h, evaluated after 13 days; for pest or weed control at 15.625 g/ha: 15.625 g ai/ha; for pest or weed control at 15.625 g/ha / pest or weed control at 250 g/ha: read-out: Foxtail, Giant damage rating (100=total damage to plant; 0=no damage to plant); for pest or weed control at 62.5 g/ha: 62.5 g ai/ha, 100=total damage to plant, 0=no damage to plant, read-out: plant damage rating, Foxtail, Giant; for pest or weed control at 250 g/ha: 250 g ai/ha
Procedure, shortened: as §2

[12] = tested on: ivy-leaved morning glory (Ipomoea hederacea); assay: Test G Pre-Emergence Protocol; conditions: Ipomoea, pre-emergence, 312 h, evaluated after 13 days; for pest or weed control at 15.625 g/ha: 15.625 g ai/ha, read-out: Morning-glory, Ivy-leaved damage rating (100=total damage to plant; 0=no damage to plant); for pest or weed control at 62.5 g/ha: 62.5 g ai/ha, 100=total damage to plant, 0=no damage to plant, read-out: plant damage rating, Morningglory, Ivy-leaved; for pest or weed control at 250 g/ha: 250 g ai/ha, read-out: Morningglory, Ivy-leaved damage rating (100=total damage to plant; 0=no damage to plant)
Procedure, shortened: as §2

Structure (SMILES)	pest or weed control at 15.625 g/ha [1] [%]	pest or weed control at 62.5 g/ha [1] [%]	pest or weed control at 250 g/ha [1] [%]	pest or weed control at 15.625 g/ha [2] [%]	pest or weed control at 62.5 g/ha [2] [%]	pest or weed control at 250 g/ha [2] [%]	pest or weed control at 15.625 g/ha [3] [%]	pest or weed control at 62.5 g/ha [3] [%]	pest or weed control at 250 g/ha [3] [%]	plant injury at 15.625 g/ha (corn (Zea mays) [4]) [%]	plant injury at 62.5 g/ha (corn (Zea mays) [4]) [%]	plant injury at 250 g/ha (corn (Zea mays) [4]) [%]	pest or weed control at 15.625 g/ha [5] [%]	pest or weed control at 62.5 g/ha [5] [%]	pest or weed control at 250 g/ha [5] [%]	pest or weed control at 15.625 g/ha [6] [%]	pest or weed control at 62.5 g/ha [6] [%]	pest or weed control at 250 g/ha [6] [%]	pest or weed control at 15.625 g/ha [7] [%]	pest or weed control at 62.5 g/ha [7] [%]	also measured
CN1C[C@@H](c2ccc(C(F)(F)F)cc2)[C@H](C(=O)Nc2ccc(F)c(Cl)c2F)C1=O (racemic) [Compound 1628]	30	70	70	10	50	60	30	20	20	0	0	50	70	80	80	20	20	50	10	0	pest or weed control at 250 g/ha [7]: 70%; pest or weed control at 15.625 g/ha [8]: 0%; pest or weed control at 62.5 g/ha [8]: 30%; pest or weed control at 250 g/ha [8]: 50%; pest or weed control at 15.625 g/ha [9]: 0%; pest or weed control at 62.5 g/ha [9]: 0%; pest or weed control at 250 g/ha [9]: 0%; plant injury at 15.625 g/ha (corn (Zea mays) [10]): 0%; plant injury at 62.5 g/ha (corn (Zea mays) [10]): 0%; plant injury at 250 g/ha (corn (Zea mays) [10]): 0%; pest or weed control at 15.625 g/ha [11]: 50%; pest or weed control at 62.5 g/ha [11]: 50%; pest or weed control at 250 g/ha [11]: 80%; pest or weed control at 15.625 g/ha [12]: 20%; pest or weed control at 62.5 g/ha [12]: 0%; pest or weed control at 250 g/ha [12]: 20%
Cc1c(NC(=O)[C@@H]2C(=O)N(C)C[C@H]2c2ccc(C(F)(F)F)cc2)ccnc1Cl (racemic) [Compound 1631]	0	10	10	0	20	20	0	10	0	0	0	10	0	60	70	0	20	20	0	0	pest or weed control at 250 g/ha [7]: 0%; pest or weed control at 15.625 g/ha [8]: 0%; pest or weed control at 62.5 g/ha [8]: 20%; pest or weed control at 250 g/ha [8]: 10%; pest or weed control at 15.625 g/ha [9]: 0%; pest or weed control at 62.5 g/ha [9]: 0%; pest or weed control at 250 g/ha [9]: 0%; plant injury at 15.625 g/ha (corn (Zea mays) [10]): 0%; plant injury at 62.5 g/ha (corn (Zea mays) [10]): 10%; plant injury at 250 g/ha (corn (Zea mays) [10]): 0%; pest or weed control at 15.625 g/ha [11]: 0%; pest or weed control at 62.5 g/ha [11]: 10%; pest or weed control at 250 g/ha [11]: 70%; pest or weed control at 15.625 g/ha [12]: 0%; pest or weed control at 62.5 g/ha [12]: 20%; pest or weed control at 250 g/ha [12]: 30%
CN1C[C@@H](c2ccc(C(F)(F)F)cc2)[C@H](C(=O)Nc2c[nH]nc2Cl)C1=O (racemic) [Compound 1633]	0	0	0	0	0	0	0	0	0	0	0	0	0	0	0	0	0	0	0	0	pest or weed control at 250 g/ha [7]: 0%; pest or weed control at 15.625 g/ha [8]: 0%; pest or weed control at 62.5 g/ha [8]: 0%; pest or weed control at 250 g/ha [8]: 0%; pest or weed control at 15.625 g/ha [9]: 0%; pest or weed control at 62.5 g/ha [9]: 0%; pest or weed control at 250 g/ha [9]: 0%; plant injury at 15.625 g/ha (corn (Zea mays) [10]): 0%; plant injury at 62.5 g/ha (corn (Zea mays) [10]): 0%; plant injury at 250 g/ha (corn (Zea mays) [10]): 0%; pest or weed control at 15.625 g/ha [11]: 0%; pest or weed control at 62.5 g/ha [11]: 0%; pest or weed control at 250 g/ha [11]: 0%; pest or weed control at 15.625 g/ha [12]: 0%; pest or weed control at 62.5 g/ha [12]: 0%; pest or weed control at 250 g/ha [12]: 0%
